Test system: normal human lung fibroblasts
Assay: Ribosomal profiling: translational efficiency in TGFβ-treated fibroblasts
Type: cell-based
Outline: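 Cells lysed on ice after a cold PBS wash containing cycloheximide. Ribosome-protected fragments and total mRNA were prepared with the ARTseq kit and sequenced by RNA-Seq. Reads were trimmed, mapped to the human genome and counted uniquely over coding regions per gene, with low-count genes excluded before differential translational-efficiency analysis.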

Substance: TGFβ
- Log2 TE FANCL (ENSG00000115392, 5 replicates): −1.233
- Log2 TE IL1R1 (ENSG00000115594, 5 replicates): −1.003
- Log2 TE PIK3R3 (ENSG00000117461, 5 replicates): −1.0571
- Log2 TE DPH5 (ENSG00000117543, 5 replicates): 1.114
- change in translational profile of DPH5 caused by TGFβ (ENSG00000117543, Control vs. TGFβ): D (D = <1.0 to 1.5)
- Log2 TE CENPF (ENSG00000117724, 5 replicates): −1.237
- Log2 TE RPS25 (ENSG00000118181, 5 replicates): 1.697
- Log2 TE SGIP1 (ENSG00000118473, 5 replicates): −2.768
- Log2 TE PPL (ENSG00000118898, 5 replicates): −1.54
- change in translational profile of PPL caused by TGFβ (ENSG00000118898, Control vs. TGFβ): B (B = <−1.5 to −2.5)
- Log2 TE NR4A3 (ENSG00000119508, 5 replicates): −1.931
- Log2 TE TEK (ENSG00000120156, 5 replicates): −1.652
- change in translational profile of PLEKHG1 caused by TGFβ (ENSG00000120278, Control vs. TGFβ): B (B = <−1.5 to −2.5)
- change in translational profile of LIAS caused by TGFβ (ENSG00000121897, Control vs. TGFβ): D (D = <1.0 to 1.5)
- Log2 TE GPSM2 (ENSG00000121957, 5 replicates): −1.408
- change in translational profile of GPSM2 caused by TGFβ (ENSG00000121957, Control vs. TGFβ): B (B = <−1.5 to −2.5)
- change in translational profile of RPL21 caused by TGFβ (ENSG00000122026, Control vs. TGFβ): E (E = <1.5 to 2.5)
- Log2 TE RPL5 (ENSG00000122406, 5 replicates): 1.593
- change in translational profile of RPL5 caused by TGFβ (ENSG00000122406, Control vs. TGFβ): E (E = <1.5 to 2.5)
- change in translational profile of INHBA caused by TGFβ (ENSG00000122641, Control vs. TGFβ): D (D = <1.0 to 1.5)
- Log2 TE CIT (ENSG00000122966, 5 replicates): −3.084
- change in translational profile of CIT caused by TGFβ (ENSG00000122966, Control vs. TGFβ): A (A = <−2.5)
- Log2 TE ATP8A1 (ENSG00000124406, 5 replicates): −2.122
- Log2 TE TRERF1 (ENSG00000124496, 5 replicates): −1.891
- Log2 TE RPS10 (ENSG00000124614, 5 replicates): 1.211
- Log2 TE COL21A1 (ENSG00000124749, 5 replicates): −1.445
- Log2 TE ATP5S (ENSG00000125375, 5 replicates): 1.075
- Log2 TE RPL23 (ENSG00000125691, 5 replicates): 1.604
- change in translational profile of RPL23 caused by TGFβ (ENSG00000125691, Control vs. TGFβ): E (E = <1.5 to 2.5)
- Log2 TE RTN2 (ENSG00000125744, 5 replicates): −1.143
- Log2 TE LAMP5 (ENSG00000125869, 5 replicates): 1.298
- change in translational profile of LAMP5 caused by TGFβ (ENSG00000125869, Control vs. TGFβ): E (E = <1.5 to 2.5)
- Log2 TE NECAB3 (ENSG00000125967, 5 replicates): 1.403
- change in translational profile of NECAB3 caused by TGFβ (ENSG00000125967, Control vs. TGFβ): E (E = <1.5 to 2.5)
- change in translational profile of COX7C caused by TGFβ (ENSG00000127184, Control vs. TGFβ): D (D = <1.0 to 1.5)
- Log2 TE TNFRSF19 (ENSG00000127863, 5 replicates): −1.093
- Log2 TE ZFP36 (ENSG00000128016, 5 replicates): 1.188
- change in translational profile of LIF caused by TGFβ (ENSG00000128342, Control vs. TGFβ): D (D = <1.0 to 1.5)
- Log2 TE APOBEC3F (ENSG00000128394, 5 replicates): −1.127
- Log2 TE SMO (ENSG00000128602, 5 replicates): −1.254
- Log2 TE CGNL1 (ENSG00000128849, 5 replicates): −1.023
- Log2 TE CD68 (ENSG00000129226, 5 replicates): 1.048
- Log2 TE MTUS1 (ENSG00000129422, 5 replicates): −1.149
- change in translational profile of MTUS1 caused by TGFβ (ENSG00000129422, Control vs. TGFβ): B (B = <−1.5 to −2.5)
- Log2 TE ARHGEF6 (ENSG00000129675, 5 replicates): −1.1
- change in translational profile of ARHGEF6 caused by TGFβ (ENSG00000129675, Control vs. TGFβ): C (C = <−1.0 to −1.5)
- Log2 TE RPL36 (ENSG00000130255, 5 replicates): 1.411
- change in translational profile of RPL36 caused by TGFβ (ENSG00000130255, Control vs. TGFβ): E (E = <1.5 to 2.5)
- change in translational profile of GDF15 caused by TGFβ (ENSG00000130513, Control vs. TGFβ): D (D = <1.0 to 1.5)
- change in translational profile of ASS1 caused by TGFβ (ENSG00000130707, Control vs. TGFβ): D (D = <1.0 to 1.5)
- Log2 TE EIF2S3 (ENSG00000130741, 5 replicates): 1.067
- change in translational profile of EIF2S3 caused by TGFβ (ENSG00000130741, Control vs. TGFβ): D (D = <1.0 to 1.5)
- Log2 TE RPL27 (ENSG00000131469, 5 replicates): 1.519
- change in translational profile of RPL27 caused by TGFβ (ENSG00000131469, Control vs. TGFβ): E (E = <1.5 to 2.5)
- Log2 TE TOP2A (ENSG00000131747, 5 replicates): −1.314
- Log2 TE MATN3 (ENSG00000132031, 5 replicates): 1.34
- change in translational profile of MATN3 caused by TGFβ (ENSG00000132031, Control vs. TGFβ): D (D = <1.0 to 1.5)
- Log2 TE SPATA6 (ENSG00000132122, 5 replicates): −1.925
- Log2 TE PPARG (ENSG00000132170, 5 replicates): −3.52
- change in translational profile of PPARG caused by TGFβ (ENSG00000132170, Control vs. TGFβ): A (A = <−2.5)
- Log2 TE KDM6B (ENSG00000132510, 5 replicates): 1.603
- change in translational profile of KDM6B caused by TGFβ (ENSG00000132510, Control vs. TGFβ): E (E = <1.5 to 2.5)
- Log2 TE RARRES3 (ENSG00000133321, 5 replicates): −1.995
- change in translational profile of RARRES3 caused by TGFβ (ENSG00000133321, Control vs. TGFβ): B (B = <−1.5 to −2.5)
- Log2 TE TMTC1 (ENSG00000133687, 5 replicates): −1.907
- Log2 TE RPS15A (ENSG00000134419, 5 replicates): 2.195
- Log2 TE SOX5 (ENSG00000134532, 5 replicates): −1.667
- change in translational profile of BIVM caused by TGFβ (ENSG00000134897, Control vs. TGFβ): B (B = <−1.5 to −2.5)
- Log2 TE ATP5G2 (ENSG00000135390, 5 replicates): 1.381
- change in translational profile of ATP5G2 caused by TGFβ (ENSG00000135390, Control vs. TGFβ): E (E = <1.5 to 2.5)
- Log2 TE KRT7 (ENSG00000135480, 5 replicates): 2
- change in translational profile of KRT7 caused by TGFβ (ENSG00000135480, Control vs. TGFβ): E (E = <1.5 to 2.5)
- Log2 TE HNRNPA1 (ENSG00000135486, 5 replicates): 1.086
- change in translational profile of HNRNPA1 caused by TGFβ (ENSG00000135486, Control vs. TGFβ): D (D = <1.0 to 1.5)
- Log2 TE PCNXL2 (ENSG00000135749, 5 replicates): −1.261
- Log2 TE PLXNC1 (ENSG00000136040, 5 replicates): −1.0996
- Log2 TE IL6 (ENSG00000136244, 5 replicates): 1.369
- change in translational profile of IL6 caused by TGFβ (ENSG00000136244, Control vs. TGFβ): E (E = <1.5 to 2.5)
- Log2 TE RPL35 (ENSG00000136942, 5 replicates): 1.28
- change in translational profile of RPL35 caused by TGFβ (ENSG00000136942, Control vs. TGFβ): E (E = <1.5 to 2.5)
- change in translational profile of NOV caused by TGFβ (ENSG00000136999, Control vs. TGFβ): C (C = <−1.0 to −1.5)
- Log2 TE IL33 (ENSG00000137033, 5 replicates): −2.488
- Log2 TE RPS6 (ENSG00000137154, 5 replicates): 1.598
- Log2 TE IER3 (ENSG00000137331, 5 replicates): 1.702
- change in translational profile of IER3 caused by TGFβ (ENSG00000137331, Control vs. TGFβ): E (E = <1.5 to 2.5)
- Log2 TE DDX60 (ENSG00000137628, 5 replicates): −1.211
- change in translational profile of DDX60 caused by TGFβ (ENSG00000137628, Control vs. TGFβ): C (C = <−1.0 to −1.5)
- Log2 TE RPLP1 (ENSG00000137818, 5 replicates): 1.461
- change in translational profile of RPLP1 caused by TGFβ (ENSG00000137818, Control vs. TGFβ): E (E = <1.5 to 2.5)
- Log2 TE PAQR5 (ENSG00000137819, 5 replicates): −1.445
- change in translational profile of PAQR5 caused by TGFβ (ENSG00000137819, Control vs. TGFβ): B (B = <−1.5 to −2.5)
- Log2 TE STAMBPL1 (ENSG00000138134, 5 replicates): −1.139
- Log2 TE KIF20B (ENSG00000138182, 5 replicates): −1.281
- Log2 TE RPS24 (ENSG00000138326, 5 replicates): 1.444
- Log2 TE TET1 (ENSG00000138336, 5 replicates): 1.853
- Log2 TE AOX1 (ENSG00000138356, 5 replicates): −1.143
- change in translational profile of AOX1 caused by TGFβ (ENSG00000138356, Control vs. TGFβ): B (B = <−1.5 to −2.5)
- Log2 TE NAB1 (ENSG00000138386, 5 replicates): −1.01
- Log2 TE SLC40A1 (ENSG00000138449, 5 replicates): 1.114
- Log2 TE FGF5 (ENSG00000138675, 5 replicates): −1.163
- change in translational profile of FGF5 caused by TGFβ (ENSG00000138675, Control vs. TGFβ): B (B = <−1.5 to −2.5)
- Log2 TE PDE5A (ENSG00000138735, 5 replicates): −1.594
- change in translational profile of PDE5A caused by TGFβ (ENSG00000138735, Control vs. TGFβ): B (B = <−1.5 to −2.5)
- Log2 TE FGD4 (ENSG00000139132, 5 replicates): −1.142
- Log2 TE SLC38A4 (ENSG00000139209, 5 replicates): −1.142
- Log2 TE GAS2L3 (ENSG00000139354, 5 replicates): −2.342
- change in translational profile of GAS2L3 caused by TGFβ (ENSG00000139354, Control vs. TGFβ): A (A = <−2.5)
- Log2 TE TDG (ENSG00000139372, 5 replicates): 1.025
- Log2 TE DIAPH3 (ENSG00000139734, 5 replicates): 1.659
- change in translational profile of DIAPH3 caused by TGFβ (ENSG00000139734, Control vs. TGFβ): E (E = <1.5 to 2.5)
- Log2 TE RPS2 (ENSG00000140988, 5 replicates): 1.607
- change in translational profile of MYO19 caused by TGFβ (ENSG00000141140, Control vs. TGFβ): D (D = <1.0 to 1.5)
- Log2 TE CACNA1A (ENSG00000141837, 5 replicates): −1.055
- Log2 TE RPS11 (ENSG00000142534, 5 replicates): 1.314
- Log2 TE RPL13A (ENSG00000142541, 5 replicates): 1.797
- change in translational profile of RPL13A caused by TGFβ (ENSG00000142541, Control vs. TGFβ): E (E = <1.5 to 2.5)
- Log2 TE RPL11 (ENSG00000142676, 5 replicates): 1.396
- change in translational profile of RPL11 caused by TGFβ (ENSG00000142676, Control vs. TGFβ): E (E = <1.5 to 2.5)
